Numbered stars: 1 amine (or outer) side, 2 acyl side, 3 side chain; on linkers, the order of the positions; unused ones are H or OH. Square brackets hold non-standard residues; d marks the D form. Side chains are listed from the residue outwards. Peptide text beside a SMILES is read from it. * marks the point of attachment. C20 diacid = O=C(O)CCCCCCCCCCCCCCCCCCC(=O)*; C18 diacid = O=C(O)CCCCCCCCCCCCCCCCC(=O)*; αMePhe(2-F) = C[C@](N)(Cc1ccccc1F)C(=O)O; C16 diacid = O=C(O)CCCCCCCCCCCCCCC(=O)*; γGlu = O=C(O)[C@H](CCC(=O)[*:2])N[*:1]; 4Pal = N[C@@H](Cc1ccncc1)C(=O)O; αMeL = CC(C)C[C@](C)(N)C(=O)O; AEEA = NCCOCCOCC(=O)O; Aib = CC(C)(N)C(=O)O
Assays:
[1] = target: human GLP-1 receptor (GLP-1R) (Homo sapiens, UniProt P43220); experiment: cAMP pharmacological functional assay in presence of casein, hGLP-1R; format: cell-based; details: HEK293 cells expressing hGLP-1R, 0.1% Casein, geometric mean; read-out: hGLP1R cAMP Rel EC50 nM (SEM, n)
[2] = target: T1, human GIP receptor (Homo sapiens, UniProt P48546); experiment: [125I]-GIP binding (SPA), human GIP receptor; details: read-out: hGIPR Ki, nM (SEM, n)
T1 construct: expressed in transfected cells; crude membranes
T1 sequence (P48546 22-466): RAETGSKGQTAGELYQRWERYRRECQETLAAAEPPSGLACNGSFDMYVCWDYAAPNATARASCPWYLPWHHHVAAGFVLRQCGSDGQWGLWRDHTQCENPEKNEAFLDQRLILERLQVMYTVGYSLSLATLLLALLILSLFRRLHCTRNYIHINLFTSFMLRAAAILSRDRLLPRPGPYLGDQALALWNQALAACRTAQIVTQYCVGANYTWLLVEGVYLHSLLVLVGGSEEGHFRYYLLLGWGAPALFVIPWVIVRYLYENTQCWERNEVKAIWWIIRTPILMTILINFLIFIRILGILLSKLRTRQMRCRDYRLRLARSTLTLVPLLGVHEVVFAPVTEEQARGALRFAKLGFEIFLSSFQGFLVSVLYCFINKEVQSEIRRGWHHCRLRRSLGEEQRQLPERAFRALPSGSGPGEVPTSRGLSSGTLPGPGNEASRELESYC

[3] = target: T2, human Gcg receptor (Homo sapiens, UniProt P47871); experiment: [125I]-Glucagon binding (SPA), human Gcg receptor; details: read-out: hGLcgR Ki, nM (SEM, n)
T2 construct: expressed in transfected cells; crude membranes
In short: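 Crude membranes from cells expressing the receptor, prepared by hypotonic lysis in 50 mM Tris HCl pH 7.5 with protease inhibitors, homogenization and differential centrifugation, were used in a WGA-bead SPA. Binding buffer: 25 mM HEPES pH 7.4, 2.5 mM CaCl2, 1 mM MgCl2, bacitracin, Tween-20.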

[4] = target: human GLP-1R (Homo sapiens, UniProt P43220); experiment: [125I]-GLP-1 binding (SPA), human GLP-1 receptor; set-up: expressed in transfected cells; crude membranes; details: read-out: hGLP1R Ki, (nM) (SEM, n)
In short: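 Membranes: hypotonic lysis (50 mM Tris HCl, pH 7.5, protease inhibitors), Potter-Elvehjem homogenization, high-speed pellet (35000×g 1 h or 25000×g 30 min, 4° C.). Buffer: 25 mM HEPES pH 7.4, 2.5 mM CaCl2, 1 mM MgCl2. Four-parameter IC50 fit; Ki as geometric mean ± SEM.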

[5] = target: T3, gastric inhibitory peptide receptor (GIPR) (Homo sapiens, UniProt P48546); experiment: cAMP pharmacological functional assay in presence of casein, hGIPR; format: cell-based; details: HEK293 cells expressing hGIPR, 0.1% Casein, geometric mean; read-out: hGIPR cAMP Rel EC50 nM (SEM, n)
T3 sequence (P48546 22-466): T1 sequence (P48546 22-466)

Chain of human GLP-1R (P43220 24-463): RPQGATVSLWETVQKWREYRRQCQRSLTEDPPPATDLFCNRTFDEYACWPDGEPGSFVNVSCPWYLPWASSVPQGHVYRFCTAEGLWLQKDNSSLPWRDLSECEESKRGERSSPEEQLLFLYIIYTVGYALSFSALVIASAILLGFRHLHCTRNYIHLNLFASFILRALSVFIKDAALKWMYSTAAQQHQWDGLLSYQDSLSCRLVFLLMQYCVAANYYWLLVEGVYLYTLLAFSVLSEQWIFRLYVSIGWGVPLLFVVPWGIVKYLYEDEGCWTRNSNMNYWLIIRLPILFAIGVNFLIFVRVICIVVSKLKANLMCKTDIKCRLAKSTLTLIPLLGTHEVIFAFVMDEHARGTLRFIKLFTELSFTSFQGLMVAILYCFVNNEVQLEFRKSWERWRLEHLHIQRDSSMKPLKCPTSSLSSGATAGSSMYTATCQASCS
Chain of human GLP-1 receptor (GLP-1R) (P43220 24-463): as above
T2 sequence (P47871 26-477): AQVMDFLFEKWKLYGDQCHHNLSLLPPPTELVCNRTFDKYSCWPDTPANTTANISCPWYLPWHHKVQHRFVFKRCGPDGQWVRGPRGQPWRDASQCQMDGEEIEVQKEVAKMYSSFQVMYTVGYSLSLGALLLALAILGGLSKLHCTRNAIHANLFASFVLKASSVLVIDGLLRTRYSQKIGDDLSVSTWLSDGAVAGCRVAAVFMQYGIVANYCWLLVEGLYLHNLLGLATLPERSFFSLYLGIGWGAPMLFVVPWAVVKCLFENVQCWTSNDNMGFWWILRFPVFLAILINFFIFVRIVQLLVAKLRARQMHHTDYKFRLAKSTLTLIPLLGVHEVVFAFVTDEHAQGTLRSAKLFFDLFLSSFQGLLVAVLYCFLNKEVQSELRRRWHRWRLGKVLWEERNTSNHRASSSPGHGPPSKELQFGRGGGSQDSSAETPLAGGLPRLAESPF

Structure (SMILES)	EC50 [1] [nM]	Ki [2] [nM]	Ki [3] [nM]	Ki [4] [nM]	EC50 [5] [nM]
CC[C@H](C)[C@H](NC(=O)[C@H](CC(C)C)NC(=O)[C@H](Cc1ccc(O)cc1)NC(=O)[C@@H](CCC(=O)O)NC(=O)[C@@H](NC(=O)[C@H](Cc1ccccc1)NC(=O)[C@H](CCC(=O)O)NC(=O)C(C)(C)NC(=O)[C@H](CCC(N)=O)NC(=O)[C@H](C)NC(=O)[C@H](CCCCNC(=O)COCCOCCNC(=O)COCCOCCNC(=O)CC[C@H](NC(=O)CCCCCCCCCCCCCCCCCCC(=O)O)C(=O)O)NC(=O)[C@H](CCC(=O)O)NC(=O)[C@H](CC(=O)O)NC(=O)[C@H](CC(C)C)NC(=O)[C@](C)(CC(C)C)NC(=O)[C@@H](NC(=O)[C@H](CO)NC(=O)[C@H](C)NC(=O)[C@H](CC(=O)O)NC(=O)[C@H](CO)NC(=O)[C@@H](NC(=O)[C@](C)(Cc1ccccc1F)NC(=O)[C@@H](NC(=O)CNC(=O)[C@H](CCC(=O)O)NC(=O)C(C)(C)NC(=O)[C@@H](N)Cc1ccc(O)cc1)[C@@H](C)O)[C@@H](C)O)[C@@H](C)CC)[C@@H](C)CC)C(=O)N[C@@H](CCC(=O)O)C(=O)NCC(=O)NCC(=O)N1CCC[C@H]1C(=O)N[C@@H](CO)C(=O)N[C@@H](CO)C(=O)NCC(=O)N[C@@H](C)C(=O)N1CCC[C@H]1C(=O)N1CCC[C@H]1C(=O)N1CCC[C@H]1C(=O)N[C@@H](CO)C(N)=O [Example 192] (H-Y[Aib]EGT[αMePhe(2-F)]TSDASI[αMeL]LDEK([AEEA-AEEA-γGlu-C20 diacid])AQ[Aib]EFI[dE]YLIEGGPSSGAPPPS-NH2; N-terminus assumed)	0.0289	0.118	> 1110	2.89	0.0615
CC[C@H](C)[C@H](NC(=O)[C@H](CC(C)C)NC(=O)[C@H](Cc1ccc(O)cc1)NC(=O)[C@@H](CCC(=O)O)NC(=O)[C@@H](NC(=O)[C@H](Cc1ccccc1)NC(=O)[C@H](CCC(=O)O)NC(=O)C(C)(C)NC(=O)[C@H](CCC(N)=O)NC(=O)[C@H](C)NC(=O)[C@H](CCCCNC(=O)COCCOCCNC(=O)COCCOCCNC(=O)CC[C@H](NC(=O)CCCCCCCCCCCCCCCCCCC(=O)O)C(=O)O)NC(=O)[C@H](CCCCN)NC(=O)[C@H](CC(=O)O)NC(=O)[C@H](CC(C)C)NC(=O)[C@](C)(CC(C)C)NC(=O)[C@@H](NC(=O)[C@H](CO)NC(=O)[C@H](Cc1ccncc1)NC(=O)[C@H](CC(=O)O)NC(=O)[C@H](CO)NC(=O)[C@@H](NC(=O)[C@](C)(Cc1ccccc1F)NC(=O)[C@@H](NC(=O)CNC(=O)[C@H](CCC(=O)O)NC(=O)C(C)(C)NC(=O)[C@@H](N)Cc1ccc(O)cc1)[C@@H](C)O)[C@@H](C)O)[C@@H](C)CC)[C@@H](C)CC)C(=O)N[C@@H](CCC(=O)O)C(=O)NCC(=O)NCC(=O)N1CCC[C@H]1C(=O)N[C@@H](CO)C(=O)N[C@@H](CO)C(=O)NCC(=O)N[C@@H](C)C(=O)N1CCC[C@H]1C(=O)N1CCC[C@H]1C(=O)N1CCC[C@H]1C(=O)N[C@@H](CO)C(N)=O [Example 203] (H-Y[Aib]EGT[αMePhe(2-F)]TSD[4Pal]SI[αMeL]LDKK([AEEA-AEEA-γGlu-C20 diacid])AQ[Aib]EFI[dE]YLIEGGPSSGAPPPS-NH2; N-terminus assumed)	0.0679	0.0337	845	3.9	0.0387
CC[C@H](C)[C@H](NC(=O)[C@H](CC(C)C)NC(=O)[C@H](Cc1ccc(O)cc1)NC(=O)[C@@H](CCC(=O)O)NC(=O)[C@@H](NC(=O)[C@H](Cc1ccccc1)NC(=O)[C@H](CCC(=O)O)NC(=O)C(C)(C)NC(=O)[C@H](CCC(N)=O)NC(=O)[C@H](C)NC(=O)[C@H](CCCCNC(=O)COCCOCCNC(=O)COCCOCCNC(=O)CCCCCCCCCCCCCCCCC(=O)O)NC(=O)[C@H](CCC(=O)O)NC(=O)[C@H](CC(=O)O)NC(=O)[C@H](CC(C)C)NC(=O)[C@](C)(CC(C)C)NC(=O)[C@@H](NC(=O)[C@H](CO)NC(=O)[C@H](Cc1ccncc1)NC(=O)[C@H](CC(=O)O)NC(=O)[C@H](CO)NC(=O)[C@@H](NC(=O)[C@](C)(Cc1ccccc1F)NC(=O)[C@@H](NC(=O)CNC(=O)[C@H](CCC(=O)O)NC(=O)C(C)(C)NC(=O)[C@@H](N)Cc1ccc(O)cc1)[C@@H](C)O)[C@@H](C)O)[C@@H](C)CC)[C@@H](C)CC)C(=O)N[C@@H](CCC(=O)O)C(=O)NCC(=O)NCC(=O)N1CCC[C@H]1C(=O)N[C@@H](CO)C(=O)N[C@@H](CO)C(=O)NCC(=O)N[C@@H](C)C(=O)N1CCC[C@H]1C(=O)N1CCC[C@H]1C(=O)N1CCC[C@H]1C(=O)N[C@@H](CO)C(N)=O [Example 205] (H-Y[Aib]EGT[αMePhe(2-F)]TSD[4Pal]SI[αMeL]LDEK([AEEA-AEEA-C18 diacid])AQ[Aib]EFI[dE]YLIEGGPSSGAPPPS-NH2; N-terminus assumed)	0.0261	0.0367	438	3.05	0.0281
CC[C@H](C)[C@H](NC(=O)[C@H](CC(C)C)NC(=O)[C@H](Cc1ccc(O)cc1)NC(=O)[C@@H](CCC(=O)O)NC(=O)[C@@H](NC(=O)[C@H](Cc1ccccc1)NC(=O)[C@H](CCC(=O)O)NC(=O)C(C)(C)NC(=O)[C@H](CCC(N)=O)NC(=O)[C@H](C)NC(=O)[C@H](CCCCNC(=O)COCCOCCNC(=O)COCCOCCNC(=O)CCCCCCCCCCCCCCCCCCC(=O)O)NC(=O)[C@H](CCC(=O)O)NC(=O)[C@H](CC(=O)O)NC(=O)[C@H](CC(C)C)NC(=O)[C@](C)(CC(C)C)NC(=O)[C@@H](NC(=O)[C@H](CO)NC(=O)[C@H](Cc1ccncc1)NC(=O)[C@H](CC(=O)O)NC(=O)[C@H](CO)NC(=O)[C@@H](NC(=O)[C@](C)(Cc1ccccc1F)NC(=O)[C@@H](NC(=O)CNC(=O)[C@H](CCC(=O)O)NC(=O)C(C)(C)NC(=O)[C@@H](N)Cc1ccc(O)cc1)[C@@H](C)O)[C@@H](C)O)[C@@H](C)CC)[C@@H](C)CC)C(=O)N[C@@H](CCC(=O)O)C(=O)NCC(=O)NCC(=O)N1CCC[C@H]1C(=O)N[C@@H](CO)C(=O)N[C@@H](CO)C(=O)NCC(=O)N[C@@H](C)C(=O)N1CCC[C@H]1C(=O)N1CCC[C@H]1C(=O)N1CCC[C@H]1C(=O)N[C@@H](CO)C(N)=O [Example 206] (H-Y[Aib]EGT[αMePhe(2-F)]TSD[4Pal]SI[αMeL]LDEK([AEEA-AEEA-C20 diacid])AQ[Aib]EFI[dE]YLIEGGPSSGAPPPS-NH2; N-terminus assumed)	0.027	0.0814	176	5.27	0.0409
CC[C@H](C)[C@H](NC(=O)[C@H](CC(C)C)NC(=O)[C@H](Cc1ccc(O)cc1)NC(=O)[C@@H](CCC(=O)O)NC(=O)[C@@H](NC(=O)[C@H](Cc1ccccc1)NC(=O)[C@H](CCC(=O)O)NC(=O)C(C)(C)NC(=O)[C@H](CCC(N)=O)NC(=O)[C@H](C)NC(=O)[C@H](CCCCNC(=O)COCCOCCNC(=O)COCCOCCNC(=O)CC[C@H](NC(=O)CCCCCCCCCCCCCCC(=O)O)C(=O)O)NC(=O)[C@H](CCC(=O)O)NC(=O)[C@H](CC(=O)O)NC(=O)[C@H](CC(C)C)NC(=O)[C@](C)(CC(C)C)NC(=O)[C@@H](NC(=O)[C@H](CO)NC(=O)[C@H](Cc1ccc(O)cc1)NC(=O)[C@H](CC(=O)O)NC(=O)[C@H](CO)NC(=O)[C@@H](NC(=O)[C@](C)(Cc1ccccc1F)NC(=O)[C@@H](NC(=O)CNC(=O)[C@H](CCC(=O)O)NC(=O)C(C)(C)NC(=O)[C@@H](N)Cc1ccc(O)cc1)[C@@H](C)O)[C@@H](C)O)[C@@H](C)CC)[C@@H](C)CC)C(=O)N[C@@H](CCC(=O)O)C(=O)NCC(=O)NCC(=O)N1CCC[C@H]1C(=O)N[C@@H](CO)C(=O)N[C@@H](CO)C(=O)NCC(=O)N[C@@H](C)C(=O)N1CCC[C@H]1C(=O)N1CCC[C@H]1C(=O)N1CCC[C@H]1C(=O)N[C@@H](CO)C(N)=O [Example 208] (H-Y[Aib]EGT[αMePhe(2-F)]TSDYSI[αMeL]LDEK([AEEA-AEEA-γGlu-C16 diacid])AQ[Aib]EFI[dE]YLIEGGPSSGAPPPS-NH2)	0.0753	0.0537	> 1060	2.13	0.0371

From US12252524B2, “GIP/GLP1 co-agonist compounds” (Eli Lilly and Company, priority 2018, dated 2025)
